# In patent US12466813B2, “PRC1 inhibitors and methods of treatment therewith” (The Regents of the University of Michigan, priority 2018, dated 2025):
# “Also recorded” adds a separate entry of the source.
# Experiments:
# RING1B-BMI1 [1] = biological target: T1, RING1B-BMI1 (Homo sapiens, UniProt Q99496); test: ITC binding of COMPOUND 1 to RING1B-BMI1
# T1 sequence (Q99496 1-336): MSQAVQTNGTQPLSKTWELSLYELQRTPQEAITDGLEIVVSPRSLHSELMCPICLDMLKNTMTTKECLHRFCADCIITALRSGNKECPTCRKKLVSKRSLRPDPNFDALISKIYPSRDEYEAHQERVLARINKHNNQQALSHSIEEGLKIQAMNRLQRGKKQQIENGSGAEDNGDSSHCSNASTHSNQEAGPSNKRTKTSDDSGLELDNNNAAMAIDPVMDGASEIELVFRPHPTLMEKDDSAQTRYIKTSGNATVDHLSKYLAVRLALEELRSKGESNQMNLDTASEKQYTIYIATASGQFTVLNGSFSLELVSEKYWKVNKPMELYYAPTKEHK
# T1 sequence (P35226 1-326 partner): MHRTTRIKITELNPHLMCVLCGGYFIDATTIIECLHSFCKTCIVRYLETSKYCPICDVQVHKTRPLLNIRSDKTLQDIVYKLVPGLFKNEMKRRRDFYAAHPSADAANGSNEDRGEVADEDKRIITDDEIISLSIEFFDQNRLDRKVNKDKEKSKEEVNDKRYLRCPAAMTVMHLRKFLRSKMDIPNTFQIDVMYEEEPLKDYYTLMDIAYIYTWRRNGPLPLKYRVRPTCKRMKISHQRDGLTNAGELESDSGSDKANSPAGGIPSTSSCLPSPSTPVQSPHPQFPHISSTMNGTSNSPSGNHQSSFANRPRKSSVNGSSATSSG
# Experimental: FIG. 1. […] A. structure of COMPOUND 1. B. ITC experiments showing the binding of COMPOUND 1 to RING1B-BMI1. C. Assigned NMR spectrum of RING1B-BMI1 with DMSO and COMPOUND 1 in 1-2 molar ratio.
# (§1) Experiments were conducted during development of embodiments herein to develop small molecule inhibitors of PRC1 by targeting the Ring1B-BMI1 E3 ligase. These compounds bind directly to Ring1B-Bmi1 with low-micromolar affinity and inhibit PRC1 in vitro and in cells. […] Experiments were conducted during development of embodiments herein to test COMPOUND 1 in leukemia stem cell models represented by TEX cells (Ref. 22; herein incorporated by reference in its entirety) and M9-ENL1 cells (Ref. 23; herein incorporated by reference in its entirety). […] In some embodiments, COMPOUND 1 and COMPOUND 1 analogs are find use as agents in targeting leukemia and other cancer stem cells.
# RING1B-BMI1 [2] = biological target: T1, RING1B-BMI1; test: KD classes of Table A (direct binding to Ring1B-Bmi1); settings: class given in Table A
# RING1B-BMI1 [3] = biological target: T1, RING1B-BMI1; test: RING1B-BMI1 E3 ligase (H2Aub) activity in vitro; type: biochemical
# Experimental: (§2) FIG. 2. COMPOUND 1 inhibits PRC1 in vitro. […] C.
# as §1
# RING1B-PCGF1 = biological target: T2, RING1B-PCGF1 (Homo sapiens, UniProt Q99496); test: RING1B-PCGF1 E3 ligase activity in vitro; type: biochemical; settings: FIG. 2B
# T2 sequence (Q99496 1-336): T1 sequence (Q99496 1-336)
# T2 sequence (Q9BSM1 1-259 partner): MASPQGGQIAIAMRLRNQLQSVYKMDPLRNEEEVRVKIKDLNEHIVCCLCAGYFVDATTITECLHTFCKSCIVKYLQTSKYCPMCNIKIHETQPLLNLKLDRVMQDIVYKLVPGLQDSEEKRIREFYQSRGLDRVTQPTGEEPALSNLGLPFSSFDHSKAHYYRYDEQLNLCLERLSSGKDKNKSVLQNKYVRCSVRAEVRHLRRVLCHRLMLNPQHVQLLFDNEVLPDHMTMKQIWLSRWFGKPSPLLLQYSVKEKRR
# Source text: as §2
# BRCA1-BARD1 = BRCA1-BARD1 (Homo sapiens, UniProt P38398+Q99728); test: BRCA1-BARD1 E3 ligase selectivity; type: biochemical; settings: FIG. 2
# Sequence of BRCA1-BARD1 (P38398 whole entry): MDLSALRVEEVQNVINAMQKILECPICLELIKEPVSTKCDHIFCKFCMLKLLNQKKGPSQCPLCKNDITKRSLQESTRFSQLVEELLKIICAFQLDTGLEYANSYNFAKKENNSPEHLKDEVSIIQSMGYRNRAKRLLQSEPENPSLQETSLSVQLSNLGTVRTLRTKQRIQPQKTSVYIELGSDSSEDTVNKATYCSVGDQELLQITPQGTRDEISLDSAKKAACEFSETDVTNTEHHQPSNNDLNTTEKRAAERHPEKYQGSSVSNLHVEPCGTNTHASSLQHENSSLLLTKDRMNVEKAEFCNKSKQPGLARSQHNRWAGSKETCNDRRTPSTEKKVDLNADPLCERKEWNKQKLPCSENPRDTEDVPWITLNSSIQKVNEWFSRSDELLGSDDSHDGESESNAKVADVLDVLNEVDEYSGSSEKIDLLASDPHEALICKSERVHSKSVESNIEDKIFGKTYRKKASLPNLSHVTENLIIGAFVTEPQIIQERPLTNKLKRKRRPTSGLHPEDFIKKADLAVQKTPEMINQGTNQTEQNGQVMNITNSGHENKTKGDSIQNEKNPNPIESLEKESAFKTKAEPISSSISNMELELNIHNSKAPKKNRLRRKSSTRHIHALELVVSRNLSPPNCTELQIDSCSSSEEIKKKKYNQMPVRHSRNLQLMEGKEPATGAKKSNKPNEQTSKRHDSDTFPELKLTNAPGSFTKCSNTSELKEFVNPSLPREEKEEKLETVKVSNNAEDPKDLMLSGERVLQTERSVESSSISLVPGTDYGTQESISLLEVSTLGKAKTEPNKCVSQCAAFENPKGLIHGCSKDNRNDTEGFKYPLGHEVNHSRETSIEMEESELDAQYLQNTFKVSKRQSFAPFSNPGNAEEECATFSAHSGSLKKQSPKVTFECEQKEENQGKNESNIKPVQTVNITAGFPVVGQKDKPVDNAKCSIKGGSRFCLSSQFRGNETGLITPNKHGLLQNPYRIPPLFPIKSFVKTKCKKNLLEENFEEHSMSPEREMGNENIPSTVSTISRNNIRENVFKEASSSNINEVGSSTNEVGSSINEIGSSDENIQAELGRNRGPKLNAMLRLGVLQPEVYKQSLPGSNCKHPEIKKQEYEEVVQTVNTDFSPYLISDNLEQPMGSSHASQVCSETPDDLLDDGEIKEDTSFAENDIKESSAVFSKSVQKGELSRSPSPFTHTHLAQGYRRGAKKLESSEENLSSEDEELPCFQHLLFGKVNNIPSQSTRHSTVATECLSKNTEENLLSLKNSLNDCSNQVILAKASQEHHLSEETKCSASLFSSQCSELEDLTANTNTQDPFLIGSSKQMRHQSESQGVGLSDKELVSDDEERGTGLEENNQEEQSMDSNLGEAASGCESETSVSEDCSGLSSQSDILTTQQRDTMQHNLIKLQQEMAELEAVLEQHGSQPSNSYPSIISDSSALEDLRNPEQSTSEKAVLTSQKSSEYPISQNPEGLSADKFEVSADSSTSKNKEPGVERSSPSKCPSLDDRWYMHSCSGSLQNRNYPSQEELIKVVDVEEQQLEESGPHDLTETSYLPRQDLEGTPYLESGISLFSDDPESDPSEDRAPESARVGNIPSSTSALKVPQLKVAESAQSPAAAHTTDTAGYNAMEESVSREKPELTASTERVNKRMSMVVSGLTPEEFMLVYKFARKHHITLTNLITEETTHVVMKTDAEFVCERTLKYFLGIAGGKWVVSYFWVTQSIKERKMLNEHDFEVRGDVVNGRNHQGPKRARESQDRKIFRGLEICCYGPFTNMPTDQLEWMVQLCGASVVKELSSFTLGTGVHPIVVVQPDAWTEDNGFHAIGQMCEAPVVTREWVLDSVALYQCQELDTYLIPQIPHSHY
# Sequence of BRCA1-BARD1 (Q99728 whole entry): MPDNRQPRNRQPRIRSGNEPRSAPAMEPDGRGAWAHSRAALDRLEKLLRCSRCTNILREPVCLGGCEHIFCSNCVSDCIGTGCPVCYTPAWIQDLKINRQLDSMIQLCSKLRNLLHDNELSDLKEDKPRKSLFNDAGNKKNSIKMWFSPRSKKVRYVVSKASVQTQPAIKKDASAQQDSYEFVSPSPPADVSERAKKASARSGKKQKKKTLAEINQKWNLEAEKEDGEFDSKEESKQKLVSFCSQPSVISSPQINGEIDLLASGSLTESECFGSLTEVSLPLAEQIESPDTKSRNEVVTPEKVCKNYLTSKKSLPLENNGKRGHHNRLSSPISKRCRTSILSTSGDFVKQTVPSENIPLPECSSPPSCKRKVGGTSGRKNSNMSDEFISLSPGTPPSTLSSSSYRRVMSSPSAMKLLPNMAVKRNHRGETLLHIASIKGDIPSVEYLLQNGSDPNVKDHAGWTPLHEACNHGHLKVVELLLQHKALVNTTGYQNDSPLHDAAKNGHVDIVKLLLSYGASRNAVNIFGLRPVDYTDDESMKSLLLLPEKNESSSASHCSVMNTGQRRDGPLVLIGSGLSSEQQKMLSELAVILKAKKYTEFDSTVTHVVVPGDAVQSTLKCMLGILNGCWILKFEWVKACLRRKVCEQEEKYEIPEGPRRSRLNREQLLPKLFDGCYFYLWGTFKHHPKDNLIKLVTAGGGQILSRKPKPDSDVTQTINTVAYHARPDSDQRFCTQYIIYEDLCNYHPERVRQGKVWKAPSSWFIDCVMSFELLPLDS
# Experimental: as §2, §1
# TRIM37 = biological target: T3, TRIM37 (Homo sapiens, UniProt O94972); test: TRIM37 E3 ligase selectivity; type: biochemical; settings: FIG. 2
# T3 sequence (O94972 1-964): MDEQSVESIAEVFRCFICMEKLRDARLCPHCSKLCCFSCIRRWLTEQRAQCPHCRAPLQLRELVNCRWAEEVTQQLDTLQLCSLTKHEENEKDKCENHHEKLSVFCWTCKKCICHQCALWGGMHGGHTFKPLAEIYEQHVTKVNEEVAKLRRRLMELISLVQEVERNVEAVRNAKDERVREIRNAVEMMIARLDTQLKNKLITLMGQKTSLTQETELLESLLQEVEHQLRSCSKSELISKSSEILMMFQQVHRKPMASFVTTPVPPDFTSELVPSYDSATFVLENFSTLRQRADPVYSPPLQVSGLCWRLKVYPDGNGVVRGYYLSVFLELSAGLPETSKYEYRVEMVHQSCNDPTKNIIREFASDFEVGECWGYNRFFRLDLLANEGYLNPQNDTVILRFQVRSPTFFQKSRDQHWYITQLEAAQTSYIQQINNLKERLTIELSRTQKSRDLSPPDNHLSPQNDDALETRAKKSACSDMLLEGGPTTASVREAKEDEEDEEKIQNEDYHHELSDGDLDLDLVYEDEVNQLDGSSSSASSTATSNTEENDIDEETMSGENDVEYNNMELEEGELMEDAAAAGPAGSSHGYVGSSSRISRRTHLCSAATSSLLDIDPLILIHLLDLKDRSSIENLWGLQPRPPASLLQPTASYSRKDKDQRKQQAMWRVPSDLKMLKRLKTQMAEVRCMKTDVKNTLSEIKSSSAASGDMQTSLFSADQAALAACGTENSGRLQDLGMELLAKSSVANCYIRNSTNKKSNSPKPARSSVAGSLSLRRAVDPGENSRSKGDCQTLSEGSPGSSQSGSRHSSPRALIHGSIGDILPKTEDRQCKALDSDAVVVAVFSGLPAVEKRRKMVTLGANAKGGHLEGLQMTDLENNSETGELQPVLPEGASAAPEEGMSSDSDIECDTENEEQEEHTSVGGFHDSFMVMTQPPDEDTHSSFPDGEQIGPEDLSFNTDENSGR
# Experimental: as §2, §1
# [4] = biological target: T4, RING1B-BMI1 interaction with nucleosome (Homo sapiens, UniProt Q99496); test: EMSA assay, RING1B-BMI1 interaction with nucleosome; type: binding; settings: FIG. 2D
# T4 sequence (Q99496 1-336): T1 sequence (Q99496 1-336)
# T4 sequence (P35226 1-326 partner): T1 sequence (P35226 1-326 partner)
# Source text: as §2
# [5] = test system: PRC1 complex in leukemia K562 cells; test: H2Aub level / PRC1 activity in K562 cells; type: cell-based; settings: FIG. 3
# Experimental: FIG. 3. COMPOUND 1 inhibits PRC1 in K562 cells. Knockdown of BMI1 and RING1B in K562 cells results in decrease in H2Aub.
# as §1
# H2Aub in TEX cells = test: H2Aub, RNA-seq and ChIP-seq in TEX cells; type: cell-based; settings: FIG. 4
# Experimental: (§3) FIGS. 4A-F. COMPOUND 1 inhibits PRC1 in TEX cells. FIG. 4A. Inhibition of H2Aub in TEX cells. FIG. 4B. Differentiation of TEX cells upon treatment with COMPOUND 1. […] FIG. 4C. GSEA analysis of TEX cells showing revers of stem cell signature. FIG. 4D. […] FIG. 4E. Gene expression changes upon treatment with COMPOUND 1. FIG. 4F.
# as §1
# TEX cells = test: Differentiation and CD34 marker of TEX cells; type: cell-based; settings: FIG. 4
# Experimental: as §3, §1
# M9-ENL1 cells [6] = test: Colony formation of M9-ENL1 cells; type: cell-based; settings: FIG. 5
# Experimental: as §1
# M9-ENL1 cells [7] = test: Transplantation of treated M9-ENL1 cells into mice; type: in vivo; settings: then transplanted into mice, FIG. 5
# Experimental: as §1
# primary AML samples = test: Primary AML samples: H2Aub, colony formation, CD34; type: cell-based; settings: FIG. 6
structure (smiles),measurement,setting,value
"CC(C)c1c(-c2cccc3[nH]ccc23)[nH]c(C(=O)O)c1-c1c(Cl)ccc2[nH]ccc12 [COMPOUND 1, 3-(5-Chloro-1H-indol-4-yl)-5-(1H-indol-4-yl)-4-isopropyl-1H-pyrrole-2-carboxylic acid]",binding to RING1B-BMI1,"RING1B-BMI1 [1]; ITC and NMR, FIG. 1",binds to RING1B-BMI1
same,Kd,"RING1B-BMI1 [1]; binds directly to Ring1B-Bmi1, FIG. 1",2600 nM
same,Kd,RING1B-BMI1 [2],< 20000 nM
same,IC50,RING1B-BMI1 [3]; FIG. 2,~2000 nM
same,RING1B-BMI1 H2Aub activity,"RING1B-BMI1 [3]; in vitro, FIG. 2A",inhibits RING1B-BMI1 H2Aub activity
same,RING1B-PCGF1 activity,RING1B-PCGF1,inhibits RING1B-PCGF1 activity
same,inhibition of BRCA1-BARD1 E3 ligase,BRCA1-BARD1,does not inhibit
same,inhibition of TRIM37 E3 ligase,TRIM37,does not inhibit
same,RING1B-BMI1 interaction with nucleosome,[4],inhibits RINIG1B-BMI1 interaction with nucleosome
same,PRC1 activity / H2Aub level in K562 cells,[5],blocks the activity of PRC1 complex; also recorded: decreases H2Aub level
same,H2Aub in TEX cells,H2Aub in TEX cells,inhibits H2Aub
same,global H2Aub (ChIP-seq),H2Aub in TEX cells,global decrease in H2Aub
same,leukemia stem cell signature (RNA-seq),H2Aub in TEX cells,reversing leukemia stem cell signature
same,differentiation of TEX cells,TEX cells,induces differentiation
same,stem cell marker CD34,TEX cells,loss of stem cell marker CD34
same,colony formation of M9-ENL1 cells,M9-ENL1 cells [6],effective in blocking colony formation
same,engraftment and leukemia development,M9-ENL1 cells [7],strongly decreases engraftment and leukemia development
same,H2Aub in primary AML samples,primary AML samples,decreases H2Aub
same,"colony formation, primary AML samples",primary AML samples,inhibits colony formation
same,"stem cell marker CD34, primary AML samples",primary AML samples,decrease stem sell marker CD34
